This is an account of results in ChEMBL document CHEMBL1132527, “Synthesis, structural characterization and antitumor activity evaluations of copper complex with tetraazamacrocyclic ligand” (Bioorg Med Chem Lett, 1999).

Common to all, as to type: functional, cell-based
In assay [1] the test system is BEL-7404 tumor cell line. Briefly: In vitro antitumor activity against BEL-7404 tumor cell lines at 10e-7 mol/L conentation. The following applies: Homo sapiens.
The test system of assay [2] is BEL-7404 tumor cell line. Briefly: In vitro antitumor activity against BEL-7404 tumor cell lines at 10e-4 mol/L conentation. The following applies: Homo sapiens.
Assay [3] concerns BEL-7404 tumor cell line. Nature of the assay: In vitro antitumor activity against BEL-7404 tumor cell lines at 10e-8 mol/L conentation. The following applies: Homo sapiens.
The subject of assay [4] is BEL-7404 tumor cell line. Briefly: In vitro antitumor activity against BEL-7404 tumor cell lines at 10e-6 mol/L conentation. The following applies: Homo sapiens.
Assay [5] relates to P388. Briefly: In vitro antitumor activity against P388 tumor cell lines at 10e-4 mol/L conentation. The following applies: Mus musculus.
For assay [6], the system named is BEL-7404 tumor cell line. Briefly: In vitro antitumor activity against BEL-7404 tumor cell lines at 10e-5 mol/L conentation. The following applies: Homo sapiens.
The subject of assay [7] is P388. Briefly: In vitro antitumor activity against P388 tumor cell lines at 10e-5 mol/L conentation. The following applies: Mus musculus.

For “Copper complex with 1,4,7,10-tetrakis(2-cyanolethyl-)-l,4,7,10-tetraazacyclododecane”, the inhibition in the assay on BEL-7404 tumor cell line [1] was 5.6%; in the assay with BEL-7404 tumor cell line [2], 63.3%; in the assay on BEL-7404 tumor cell line [3], 10%; with BEL-7404 tumor cell line [4], 78%; in the assay with P388 [5] it was 100%; with BEL-7404 tumor cell line [6], 75.6%. In the assay on P388 [7], this substance returned an inhibition of 96.4%.

What is called inhibition is the percentage by which the read-out fell short of the control.
